SMILES strings stand for the structures.

Here are results for two compounds from US20220142897A1, “Formulation and Use Thereof in the Treatment of Keratosis Pilaris” (priority 2020, published 2022).

Data set [1] deals with sebaceous glands. Nature of the data set: Stimulation of sebaceous glands / sebum production by topical DHEA. Type of data set: in vivo, human. The source says:
The main component of the current invention is DHEA, a steroid hormone. Without being bound by theory, it is hypothesized that DHEA in the current invention serves to simulate the production of sebaceous glands. […] In contrast, the upper limits of DHEA in the current invention can be as high as 100%.
Daily applications of DHEA can increase the output of sebaceous glands by up to 60% within 3 months. This makes DHEA a particularly viable and effective treatment for increasing sebum output in those with KP. Patients with KP typically have widespread sebaceous gland atrophy in the affected areas of the skin, causing downstream symptoms of skin dryness, inflammation, and could potentially be the root cause of the keratin papules that develop. DHEA also is suspected to help modulate and regulate keratinocyte proliferation. It is suspected that by regulating keratinocytes in the follicular channel, the rate at which keratin blockages forms is reduced.

Data set [2] relates to sebaceous glands. The following applies: cited from earlier work.

For the compound `C[C@]12CC[C@H](O)CC1=CC[C@@H]1[C@@H]2CC[C@]2(C)C(=O)CC[C@@H]12` [DHEA, dehydroepiandrosterone], the “sebum production as observed by softness and oiliness” value was “increase in sebum production” in the data set with sebaceous glands [1] (2% DHEA) and “Such phenotypes are observed” in the data set with sebaceous glands [1] (DHEA reduced to approximately 0.1%). For the same compound, in the data set with sebaceous glands [1] (concentrations of DHEA at less than 0.1%, clinical studies), the “stimulation of the sebaceous glands” value is recorded as “ineffective”. Moreover, the “increase of the output of sebaceous glands” value in the data set with sebaceous glands [2] (daily applications, within 3 months) is on record as “up to 60%”. In the data set on sebaceous glands [2] (low concentrations to avoid systemic circulation), the “safety of continuous topical application” value is reported as “safe”.
In the case of `C[C@]12CCC(=O)C[C@@H]1CC[C@@H]1[C@@H]2CC[C@]2(C)[C@@H](O)CC[C@@H]12` [DHT, dihydrotestosterone], the “potency to stimulate sebaceous gland to produce sebocytes” value with sebaceous glands [2] (relative to DHEA) was “more potent than DHEA”.
